Assays:
[1] = Metabolic stability in mouse liver microsomes (MLMs); assay type: in vitro ADME
Experimental: Next, the target compound was incubated with mouse liver microsomes in the presence of an NADPH regenerating system. In the initial screening phase, the percentage of the parent compound recovered after 30 min of incubation was calculated (Table 2). […] The assay was performed with mouse liver microsomes from male CD-1. […] Metabolic reactions were initiated by the addition of the NADPH regenerating system, containing NADP, glucose-6-phosphate, and glucose-6-phosphate dehydrogenase. […] Enzymatic reactions were quenched by perchloric acid followed by addition of internal standard (pentoxifylline). Negative controls were performed without NADPH-regenerating system. After centrifugation, samples were analyzed by LC/MS (UPLC/MS, Waters Corporation, Milford, MA, USA). In vitro half time (t1/2) and intrinsic clearance (Clint) of test compound in liver microsomes were determined according to literature procedures.

human 5-HT6 receptor = biological target: T1, human 5-HT6 receptor (Homo sapiens, UniProt P50406); assay: Radioligand binding, [3H]-LSD, CHO-K1 membranes; conditions: CHO-K1 cells, mean ± SEM, read-out: Serotonergic pKi 5-HT6 (converted)
T1 construct: expressed in transfected cells; host or cells: CHO-K1 (membranes)
Experimental: (§1) Radioligand binding was performed on membranes from CHO-K1 cells stably transfected with the human 5-HT1A, 5-HT2A, 5-HT6, or 5-HT7 receptors. […] Binding experiments were conducted in 96-well microplates, and the reaction mix included the solution of the test compound, radioligand, and diluted membranes or the tissue suspension.
(§2) The reaction was terminated by rapid filtration through GF/B or GF/C filter mate presoaked with 0.3% polyethyleneimine for 30 min. Ten rapid washes with 200 µl 50 mM Tris buffer (4 °C, pH 7.4) were performed using an automated harvester system Harvester-96 MACH III FM (Tomtec). […] Radioactivity was counted in the MicroBeta2 scintillation counter (PerkinElmer) at approximately 30% efficiency. […] A single assay was performed with each compound concentrations in duplicate, and the whole assay was repeated in a three independent experiments.

human 5-HT2A receptor = biological target: T2, human 5-HT2A receptor (Homo sapiens, UniProt P28223); assay: Radioligand binding, [3H]-ketanserin, CHO-K1 membranes; conditions: CHO-K1 cells, mean ± SEM, read-out: Serotonergic pKi 5-HT2A (converted)
T2 construct: expressed in transfected cells; host or cells: CHO-K1 (membranes)
Experimental: as §1, §2

mice [2] = assay: Tail suspension test in mice; assay type: in vivo, mouse; conditions: 30 min before test
Experimental: Adult male Albino-Swiss mice (CD-1, 8 weeks old, 18–21g: Jagiellonian University Medical College, Krakow, Poland) were used in all experiments. Unless stated otherwise, the animals were kept in groups of 10 mice in standard cages (37 cm × 21 cm × 15 cm) at a room temperature (22 ± 2 °C), on a 12 h light/dark cycle (lights on 7:00) with ad libitum access to food and water. Mice were used only once in each test. Behavioral experiments were performed between 8 am and 4 pm and evaluated by a trained observer blind to the treatments. Mice were handled for 1 week before starting the experimental procedures. Animals were randomly allocated to the treatment using a computer-generated sequence, and researchers making measurements on the animals or analyzing the results were blind to the allocation. Moreover, experimental groups were distributed across multiple cages, and the location of the mouse cages in the room was changed following each day. […]
The experiment was carried out in mice according to the method described by Steru et al. and as previously described. […] The total time of immobility was measured during the 6-min test period. […] The experiments were video-recorded and scored using elevenmaze.com software by a trained observer blind to the treatments.

human 5-HT7 receptor = biological target: T3, human 5-HT7 receptor (Homo sapiens, UniProt P34969); assay: Radioligand binding, [3H]-5-CT, CHO-K1 membranes; conditions: CHO-K1 cells, mean ± SEM, read-out: Serotonergic pKi 5-HT7 (converted)
T3 construct: expressed in transfected cells; host or cells: CHO-K1 (membranes)
Experimental: as §1, §2

Rotarod test in mice = assay type: in vivo, mouse; conditions: mouse, in vivo; ip, log-probit method
Experimental: (§3) This experimental procedure was described in detail in our earlier studies. Briefly, mice were trained on the rotarod apparatus (May Commat RR0711, Turkey; rod diameter: 2 cm) every day for 3 consecutive days. During each training session, mice were placed for 3 min on the rotating rod (24 rpm, constant speed) with an unlimited number of trials. The experiment was performed 24 h after the last training session. On the test day, mice were injected with HBK-10, and 30 min after the administration tested on the rotarod (24 rpm, constant speed). Motor impairment was regarded as the inability to remain on the rotating rod for 60 s and was expressed as the % of animals that fell off the rotating rod.

mice [3] = assay: Rotarod test in mice; assay type: in vivo, mouse
Experimental: as §3

Chimney test in mice = assay type: in vivo, mouse; conditions: mouse, in vivo; ip, log-probit method
Experimental: (§4) The chimney test was performed as previously described. The mice were trained before the test, and only those animals able to get out of the chimney within 1 min, were used at the experimental stage. The selected mice were placed in a 25 cm long and 2.5 cm in diameter horizontally located tube, which was reversed so that the mice could leave it only by climbing up backward until they reached the other end. Motor impairment was indicated by the inability of the mice to perform the test within 60 s. The number of animals unable to climb backward within 60 s was recorded, and TD50 values were calculated.

mice [4] = assay: Chimney test in mice; assay type: in vivo, mouse
Experimental: as §4

dopaminergic D2 receptor = dopaminergic D2 receptor (Homo sapiens, UniProt P14416); assay: Radioligand binding, [3H]-methylspiperon, CHO-K1 cells; conditions: mean ± SEM, read-out: Dopaminergic pKi D2 (converted)
Experimental: as §2

Chain of dopaminergic D2 receptor (P14416 whole entry): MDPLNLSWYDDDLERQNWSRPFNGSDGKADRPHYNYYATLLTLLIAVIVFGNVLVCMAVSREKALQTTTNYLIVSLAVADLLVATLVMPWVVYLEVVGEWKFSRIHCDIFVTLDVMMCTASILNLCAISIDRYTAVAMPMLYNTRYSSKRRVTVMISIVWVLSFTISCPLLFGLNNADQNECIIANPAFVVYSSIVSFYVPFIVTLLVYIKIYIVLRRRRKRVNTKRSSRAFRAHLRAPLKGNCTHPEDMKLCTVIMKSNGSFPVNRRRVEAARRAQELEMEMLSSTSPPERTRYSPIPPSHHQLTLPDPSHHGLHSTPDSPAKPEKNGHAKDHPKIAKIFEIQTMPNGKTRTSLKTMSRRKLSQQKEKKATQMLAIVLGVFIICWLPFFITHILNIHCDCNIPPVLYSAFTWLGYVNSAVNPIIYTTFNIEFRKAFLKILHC
T2 sequence (P28223 whole entry): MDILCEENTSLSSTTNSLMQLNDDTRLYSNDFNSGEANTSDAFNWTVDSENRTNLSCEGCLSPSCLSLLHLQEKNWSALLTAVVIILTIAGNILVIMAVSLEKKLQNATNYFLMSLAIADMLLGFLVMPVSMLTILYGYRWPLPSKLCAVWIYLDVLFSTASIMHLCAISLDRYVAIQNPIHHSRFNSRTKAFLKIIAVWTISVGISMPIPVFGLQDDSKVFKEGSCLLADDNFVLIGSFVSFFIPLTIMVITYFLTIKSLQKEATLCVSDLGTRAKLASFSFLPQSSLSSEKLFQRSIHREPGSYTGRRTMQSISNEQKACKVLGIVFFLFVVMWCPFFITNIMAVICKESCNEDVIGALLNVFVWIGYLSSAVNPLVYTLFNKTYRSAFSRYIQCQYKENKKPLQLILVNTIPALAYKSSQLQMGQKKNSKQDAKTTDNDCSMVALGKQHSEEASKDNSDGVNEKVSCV
T1 sequence (P50406 whole entry): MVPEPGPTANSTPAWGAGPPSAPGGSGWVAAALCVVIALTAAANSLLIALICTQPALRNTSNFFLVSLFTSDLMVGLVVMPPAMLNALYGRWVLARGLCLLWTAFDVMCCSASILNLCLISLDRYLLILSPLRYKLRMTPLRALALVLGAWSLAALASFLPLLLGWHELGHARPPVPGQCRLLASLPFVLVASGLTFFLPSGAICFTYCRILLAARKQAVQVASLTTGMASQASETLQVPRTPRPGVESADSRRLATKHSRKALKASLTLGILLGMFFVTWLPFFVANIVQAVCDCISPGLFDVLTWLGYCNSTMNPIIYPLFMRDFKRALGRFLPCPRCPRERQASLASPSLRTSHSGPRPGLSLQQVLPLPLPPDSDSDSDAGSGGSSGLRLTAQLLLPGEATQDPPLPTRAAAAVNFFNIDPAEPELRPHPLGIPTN
T3 sequence (P34969 whole entry): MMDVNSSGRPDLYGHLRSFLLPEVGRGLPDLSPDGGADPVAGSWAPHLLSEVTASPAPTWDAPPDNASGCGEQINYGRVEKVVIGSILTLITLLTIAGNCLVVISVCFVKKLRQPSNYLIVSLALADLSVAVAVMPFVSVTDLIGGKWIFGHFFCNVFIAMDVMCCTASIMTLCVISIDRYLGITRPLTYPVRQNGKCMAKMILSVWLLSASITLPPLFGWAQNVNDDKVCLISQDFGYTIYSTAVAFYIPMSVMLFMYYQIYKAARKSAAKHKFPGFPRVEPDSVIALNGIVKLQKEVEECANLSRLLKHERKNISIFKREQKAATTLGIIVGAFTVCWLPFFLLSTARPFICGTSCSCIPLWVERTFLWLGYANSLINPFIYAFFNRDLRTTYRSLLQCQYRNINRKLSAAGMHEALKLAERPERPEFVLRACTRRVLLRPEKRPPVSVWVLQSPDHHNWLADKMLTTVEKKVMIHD

## CCC(CN1CCN(c2ccccc2OC)CC1)NCCCOc1c(C)cccc1C.Cl.Cl (stereo not drawn) [HBK-10, N-(3-(2,6-dimethylphenoxy)propyl)-1-(4-(2-methoxyphenyl)piperazin-1-yl)butan-2-amine dihydrochloride]
[1]
  Recovery percent of parent compound after 30 min, fold higher than buspirone: more than 100 fold
[1]; male, CD-1, mouse, liver microsomes, pH 7.4, protein concentration 0.8
  half-life at 20 µM: 25 min
[1]; male, CD-1, mouse, liver microsomes, pH 7.4, protein concentration 0.8, NADPH regenerating system, read-out: % Remaining after 30 min
  remaining at 0.5 h, 20 µM: 36%
[1]; male, CD-1, mouse, liver microsomes, pH 7.4, protein concentration 0.8, read-out: Intrinsic Clearance (Clint)
  microsomal CLint at 20 µM: 34.6 µL/min/mg
Human 5-HT6 receptor
  Ki: 3720 nM
Human 5-HT2A receptor
  Ki: 191 nM
Mice [2]; 5 mg/kg ip
  Reduction of immobility in the tail suspension test: 54.5%
Mice [2]; 10 mg/kg ip
  Reduction of immobility in the tail suspension test: 42%
Human 5-HT7 receptor
  Ki: 6310 nM
other
  melting point: 224 to 226 °C
Rotarod test in mice
  TD50 at 30 min: 44.3 mg/kg
Mice [3]; 40 mg/kg ip
  % of Animals That Fell from Rotating Rod: 29%
Mice [3]; 45 mg/kg ip
  % of Animals That Fell from Rotating Rod: 63%
Mice [3]; 60 mg/kg ip
  % of Animals That Fell from Rotating Rod: 86%
Chimney test in mice
  TD50 at 30 min: 21.7 mg/kg
Mice [4]; 10 mg/kg ip
  % of Animals That Did Not Climb out the Chimney: 20%
Mice [4]; 20 mg/kg ip
  % of Animals That Did Not Climb out the Chimney: 40%
Mice [4]; 30 mg/kg ip
  % of Animals That Did Not Climb out the Chimney: 64%
Mice [4]; 40 mg/kg ip
  % of Animals That Did Not Climb out the Chimney: 87%
Mice [4]; 60 mg/kg ip
  % of Animals That Did Not Climb out the Chimney: 90%
Dopaminergic D2 receptor
  Ki: 50.1 nM

Reference: article PMC8400343, “Synthesis and Evaluation of the Antidepressant-like Properties of HBK-10, a Novel 2-Methoxyphenylpiperazine Derivative Targeting the 5-HT1A and D2 Receptors” (Pharmaceuticals, 2021)
